Assays:
[1] = xn = mol fraction of the nth substance listed; details: 298.15 K, 101.33 kPa, Liquid
[2] = excess molar enthalpy (molar enthalpy of mixing); xn = mol fraction of the nth substance listed; details: 298.15 K, 101.33 kPa, Liquid

ClCCCCCCl [1,5-dichloropentane] + CCOC(=O)CC
[1]
Details | mass density [kg/m3]
x2 = 0.0734 | 1081.12
x2 = 0.129 | 1070.38
x2 = 0.1956 | 1057.38
x2 = 0.2575 | 1045.16
x2 = 0.3202 | 1032.63
x2 = 0.4361 | 1008.96
x2 = 0.5001 | 995.63
x2 = 0.5582 | 983.34
x2 = 0.6155 | 971.03
x2 = 0.6735 | 958.42
x2 = 0.7283 | 946.34
x2 = 0.785 | 933.66
x2 = 0.8394 | 921.33
x2 = 0.8926 | 909.15
x2 = 0.9451 | 896.94

ClCCCCCCl [1,5-dichloropentane] + CCCCC(=O)OCC
Details | excess molar enthalpy [kcal/mol] | mass density [kg/m3]
[1], x2 = 0.1036 | – | 1068.61
[1], x2 = 0.1561 | – | 1055.46
[1], x2 = 0.2082 | – | 1042.59
[1], x2 = 0.2623 | – | 1029.48
[1], x2 = 0.3179 | – | 1016.24
[1], x2 = 0.3785 | – | 1002.01
[1], x2 = 0.4369 | – | 988.54
[1], x2 = 0.4943 | – | 975.55
[1], x2 = 0.5534 | – | 962.34
[1], x2 = 0.6141 | – | 949.06
[1], x2 = 0.6755 | – | 935.8
[1], x2 = 0.7367 | – | 922.8
[1], x2 = 0.8008 | – | 909.43
[1], x2 = 0.8658 | – | 896.13
[1], x2 = 0.9318 | – | 882.79
[2], x2 = 0.0481 | -0.00244 | –
[2], x2 = 0.1066 | -0.00762 | –
[2], x2 = 0.1663 | -0.0128 | –
[2], x2 = 0.228 | -0.0206 | –
[2], x2 = 0.2876 | -0.0279 | –
[2], x2 = 0.3438 | -0.0357 | –
[2], x2 = 0.3973 | -0.0434 | –
[2], x2 = 0.416 | -0.0465 | –
[2], x2 = 0.4433 | -0.0493 | –
[2], x2 = 0.4786 | -0.0512 | –
[2], x2 = 0.5288 | -0.0522 | –
[2], x2 = 0.5848 | -0.0517 | –
[2], x2 = 0.6478 | -0.05 | –
[2], x2 = 0.7165 | -0.0433 | –
[2], x2 = 0.7867 | -0.0365 | –
[2], x2 = 0.8597 | -0.0264 | –
[2], x2 = 0.9325 | -0.0137 | –

CCCCC(=O)OCC [ethyl pentanoate] + ClCCCCl
Details | excess molar enthalpy [kcal/mol] | mass density [kg/m3]
[1], x1 = 0.0395 | – | 1159.55
[1], x1 = 0.0785 | – | 1141.75
[1], x1 = 0.1207 | – | 1123.43
[1], x1 = 0.1642 | – | 1105.29
[1], x1 = 0.2098 | – | 1087.19
[1], x1 = 0.2576 | – | 1069.12
[1], x1 = 0.3081 | – | 1050.97
[1], x1 = 0.3623 | – | 1032.41
[1], x1 = 0.4179 | – | 1014.41
[1], x1 = 0.4804 | – | 995.25
[1], x1 = 0.538 | – | 978.58
[1], x1 = 0.6036 | – | 960.5
[1], x1 = 0.744 | – | 925.06
[1], x1 = 0.8249 | – | 906.38
[1], x1 = 0.9085 | – | 888.3
[2], x2 = 0.0493 | -0.00743 | –
[2], x2 = 0.0986 | -0.0147 | –
[2], x2 = 0.1536 | -0.0238 | –
[2], x2 = 0.2082 | -0.0333 | –
[2], x2 = 0.261 | -0.0426 | –
[2], x2 = 0.3126 | -0.052 | –
[2], x2 = 0.3627 | -0.061 | –
[2], x2 = 0.4084 | -0.066 | –
[2], x2 = 0.4405 | -0.0697 | –
[2], x2 = 0.4492 | -0.0707 | –
[2], x2 = 0.5044 | -0.0725 | –
[2], x2 = 0.5692 | -0.0725 | –
[2], x2 = 0.6438 | -0.0687 | –
[2], x2 = 0.7284 | -0.0593 | –
[2], x2 = 0.8181 | -0.0439 | –
[2], x2 = 0.9124 | -0.0246 | –

ClCCCCCCl [1,5-dichloropentane] + CCOC=O
[1]
Details | mass density [kg/m3]
x2 = 0.0925 | 1084.33
x2 = 0.173 | 1074.06
x2 = 0.2529 | 1063.2
x2 = 0.3276 | 1052.35
x2 = 0.3957 | 1041.79
x2 = 0.4618 | 1031.02
x2 = 0.5249 | 1020.19
x2 = 0.5835 | 1009.55
x2 = 0.6395 | 998.87
x2 = 0.6917 | 988.42
x2 = 0.7415 | 977.92
x2 = 0.7896 | 967.31
x2 = 0.836 | 956.62
x2 = 0.8791 | 946.24
x2 = 0.9211 | 935.6
x2 = 0.9595 | 925.4

ClCCCCCCCl [1,6-dichlorohexane] + CCOC(=O)CC
[1]
Details | mass density [kg/m3]
x2 = 0.0733 | 1053.16
x2 = 0.144 | 1042.66
x2 = 0.2117 | 1032.32
x2 = 0.2775 | 1021.98
x2 = 0.3418 | 1011.56
x2 = 0.4104 | 1000.12
x2 = 0.5264 | 979
x2 = 0.5884 | 968.62
x2 = 0.7491 | 937.72
x2 = 0.8052 | 926.3
x2 = 0.8547 | 915.96
x2 = 0.905 | 905.21
x2 = 0.9513 | 894.99
